Our source for the IC50 values is patent US11976059B2 (KOREA RESEARCH INSTITUTE OF CHEMICAL TECHNOLOGY, priority 2018, dated 2024).

pIC50: −log10 of the molar value.

In this assay the target is EGFR L858R/T790M/C797S mutant enzyme (Homo sapiens (Human), UniProt P00533, C797S/L858R/T790M). Nature of the assay: EGFR mutant enzyme inhibition, HTRF system (Cisbio). It counts as biochemical. The conditions noted are these: ATP 1 mM, 37° C. for 2 hours. The method, then:
In order to evaluate the inhibitory activity of the compound represented by formula 1 according to the present invention against EGFR mutation, the following experiment was performed.
The activity of the compound of the present invention against EGFR mutant enzyme was measured using the HTRF system of Cisbio Co. As an EGFR L858R/T790M/C797S mutant enzyme, a protein provided by SignalChem was purchased and used as an enzyme source.
The composition of the assay buffer used for the activity measurement was as follows: 50 mM Tris-HCl (pH 7.5), 100 mM NaCl, 7.5 mM MgCl2, 3 mM KCl, 0.01% Tween 20, 0.1% BSA, and 1 mM DTT. Herein, an enzyme reaction was performed using a peptide substrate labeled with ATP at the concentration of 1 mM and biotin at the concentration of 0.5 μM. The analysis of the EGFR activity inhibitory effect of the compound was performed according to the following analytical reaction recipe.
Component 1: 4 μl of EGFR mutant enzyme
Component 2: 2 μl of compound solution
Component 3: 4 μl of ATP and biotin-labeled peptide mixture
The enzyme reaction was initiated by mixing the component 1 and the component 2 first and then adding the component 3 thereto. After reacting the mixture at 37° C. for 2 hours, 10 μl of a measurement solution consisting of streptavidin-XL665 and europium-labeled anti-phosphotyrosine antibody provided by Cisbio was added to the enzyme reaction solution, followed by reaction at room temperature for 1 hour. Finally, the ratio of the fluorescence values at 615 nm and 665 nm was calculated using Envision equipment of Perkin-Elmer to quantitatively measure the enzyme activity and confirm the inhibitory ability of the compound. The values measured at 7 concentrations of the compound were analyzed using Prism program (version 5.01, Graphpad Software, Inc.), and the IC50 value, an index of the inhibitory ability of the compound, was calculated.

Sequence of EGFR L858R/T790M/C797S mutant enzyme (P00533 25-1210 T790M/C797S/L858R): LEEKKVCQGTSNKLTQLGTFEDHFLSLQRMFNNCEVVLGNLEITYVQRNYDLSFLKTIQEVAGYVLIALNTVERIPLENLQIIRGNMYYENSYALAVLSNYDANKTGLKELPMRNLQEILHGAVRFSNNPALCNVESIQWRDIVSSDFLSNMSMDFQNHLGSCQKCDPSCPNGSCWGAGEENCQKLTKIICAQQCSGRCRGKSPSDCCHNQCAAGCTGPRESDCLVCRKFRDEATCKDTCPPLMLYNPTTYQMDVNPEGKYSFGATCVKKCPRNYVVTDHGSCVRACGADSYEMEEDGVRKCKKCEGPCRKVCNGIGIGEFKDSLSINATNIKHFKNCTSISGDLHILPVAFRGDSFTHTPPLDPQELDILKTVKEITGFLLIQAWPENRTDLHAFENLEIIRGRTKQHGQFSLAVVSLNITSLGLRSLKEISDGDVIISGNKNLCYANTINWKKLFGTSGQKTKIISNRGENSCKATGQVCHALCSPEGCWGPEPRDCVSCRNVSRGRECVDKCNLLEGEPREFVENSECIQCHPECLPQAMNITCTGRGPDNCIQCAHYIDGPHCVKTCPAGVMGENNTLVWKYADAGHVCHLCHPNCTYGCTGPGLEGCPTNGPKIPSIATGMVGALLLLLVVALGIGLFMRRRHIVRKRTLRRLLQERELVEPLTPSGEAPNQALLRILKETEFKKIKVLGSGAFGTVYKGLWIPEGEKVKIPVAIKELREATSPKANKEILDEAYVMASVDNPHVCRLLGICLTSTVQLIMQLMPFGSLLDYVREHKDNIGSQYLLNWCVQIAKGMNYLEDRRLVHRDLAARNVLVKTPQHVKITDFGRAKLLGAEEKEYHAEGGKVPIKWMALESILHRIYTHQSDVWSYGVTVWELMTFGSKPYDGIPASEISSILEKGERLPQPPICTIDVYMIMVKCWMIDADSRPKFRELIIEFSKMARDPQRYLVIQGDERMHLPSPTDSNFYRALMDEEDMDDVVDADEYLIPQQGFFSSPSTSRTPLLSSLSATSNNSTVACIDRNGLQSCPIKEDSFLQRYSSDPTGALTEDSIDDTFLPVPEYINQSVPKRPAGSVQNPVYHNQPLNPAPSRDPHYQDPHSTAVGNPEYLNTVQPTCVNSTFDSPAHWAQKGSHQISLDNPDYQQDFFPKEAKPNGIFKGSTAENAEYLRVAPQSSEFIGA

For `O=C1c2cc(-c3ccc(N4CCNCC4)cc3)ccc2CN1C(c1nc2ccccc2[nH]1)c1cc(F)ccc1O` (centres unmarked) [Example 10, 2-((1H-benzo[d]imidazole-2-yl)(5-fluoro-2-hydroxyphenyl)methyl)-6-(4-(piperazine-1-yl)phenyl)isoindolin-1-one], the pIC50 is 7.00.

`O=C1c2ccccc2CN1[C@@H](c1cc2ccccc2[nH]1)c1cc(F)c(F)cc1O` [Example 22, (R)-2-((4,5-difluoro-2-hydroxyphenyl)(1H-indole-2-yl)methyl)isoindolin-1-one] had a pIC50 of less than 5.00.

As to `O=C1c2cc(-c3ccc(-c4ccncc4)cc3)ccc2CN1C(c1nc2ccccc2[nH]1)c1cc(Cl)ccc1O` (centres unmarked) [Example 42, 2-((1H-benzo[d]imidazole-2-yl)(5-chloro-2-hydroxyphenyl)methyl)-6-(4-(pyridine-4-yl)phenyl)isoindolin-1-one], the pIC50 is 6.35.

`O=C1c2cc(-c3ccc(N4CCN(C5CCNCC5)CC4)cc3)ccc2CN1[C@@H](c1cc2ccccc2[nH]1)c1cc(F)ccc1O` [Example 63, (R)-2-((5-fluoro-2-hydroxyphenyl)(1H-indole-2-yl)methyl)-6-(4-(4-(piperidine-4-yl)piperazine-1-yl)phenyl)isoindolin-1-one] showed a pIC50 of 6.52.

The compound `CN1CCC(N2CCN(c3ccc(-c4ccc5c(c4)C(=O)N([C@@H](c4cc6ccccc6[nH]4)c4cc(F)ccc4O)C5)cc3)CC2)CC1` [Example 65, (R)-2-((5-fluoro-2-hydroxyphenyl)(1H-indole-2-yl)methyl)-6-(4-(4-(1-methylpiperidine-4-yl)piperazine-1-yl)phenyl)isoindolin-1-one] gave a pIC50 of 7.30.

The compound `O=C1c2cc(-c3ccc(N4CCN(C5CCNCC5)CC4)cc3)ccc2CN1[C@@H](c1cc2ccccc2[nH]1)c1cc(Cl)ccc1O` [Example 64, (R)-2-((5-chloro-2-hydroxyphenyl)(1H-indole-2-yl)methyl)-6-(4-(4-(piperidine-4-yl)piperazine-1-yl)phenyl)isoindolin-1-one] gave a pIC50 of 6.59.

For the compound `O=C1c2cc(N3CCNCC3)ccc2CN1[C@@H](c1cc2ccccc2[nH]1)c1cc(F)ccc1O` [Example 37, (R)-2-((5-fluoro-2-hydroxyphenyl)(1H-indole-2-yl)methyl)-6-(piperazine-1-yl)isoindolin-1-one], the pIC50 was less than 5.00.

Compound `N[C@@H]1CCN(c2ccc(-c3ccc4c(c3)C(=O)N([C@@H](c3cc5ccccc5[nH]3)c3cc(Cl)ccc3O)C4)cc2)C1` [Example 70, 6-(4-((R)-3-aminopyrrolidine-1-yl)phenyl)-2-((R)-(5-chloro-2-hydroxyphenyl)(1H-indole-2-yl)methyl)isoindolin-1-one] had a pIC50 of 6.14.

In the case of `Nc1ccc(-c2ccc3c(c2)C(=O)N(C(c2nc4ccccc4[nH]2)c2ccccc2O)C3)cc1` (centres unmarked) [Example 12, 2-((1H-benzo[d]imidazole-2-yl)(2-hydroxyphenyl)methyl)-6-(4-aminophenyl)isoindolin-1-one], the pIC50 was 6.30.

`O=C1c2cc(C3=CCNCC3)ccc2CN1C(c1nc2ccccc2[nH]1)c1cc(Cl)ccc1O` (centres unmarked) [Example 17] showed a pIC50 of 5.96.

The compound `O=C1c2cc(-c3ccc(-c4ccncc4)cc3)ccc2CN1[C@@H](c1cc2ccccc2[nH]1)c1cc(Cl)ccc1O` [Example 48, (R)-2-((5-chloro-2-hydroxyphenyl)(1H-indole-2-yl)methyl)-6-(4-(pyridine-4-yl)phenyl)isoindolin-1-one] showed a pIC50 of less than 5.00.

Turning to `O=C1c2cc(C3=CCNCC3)ccc2CN1[C@@H](c1cc2ccccc2[nH]1)c1ccccc1O` [Example 34, (R)-2-((2-hydroxyphenyl)(1H-indole-2-yl)methyl)-6-(1,2,3,6-tetrahydropyridine-4-yl)isoindolin-1-one], the negative-log IC50 (pIC50) was 5.54.

In the case of `O=C1c2cc(-c3ccc(N4CCCC4)cc3)ccc2CN1[C@@H](c1cc2ccccc2[nH]1)c1cc(F)ccc1O` [Example 67, (R)-2-((5-fluoro-2-hydroxyphenyl)(1H-indole-2-yl)methyl)-6-(4-(pyrrolidine-1-yl)phenyl)isoindolin-1-one], the pIC50 is 6.10.

`CN1CCN(c2ccc(-c3ccc4c(c3)C(=O)N(C(c3nc5ccccc5[nH]3)c3cc(F)ccc3O)C4)cc2)CC1` (centres unmarked) [Example 18, 2-((1H-benzo[d]imidazole-2-yl)(5-fluoro-2-hydroxyphenyl)methyl)-6-(4-(4-methylpiperazine-1-yl)phenyl)isoindolin-1-one] showed a negative-log IC50 (pIC50) of 6.89.

In turn, `O=C1c2cc(-c3ccc(C4=CCNCC4)cc3)ccc2CN1[C@@H](c1cc2cc(F)ccc2[nH]1)c1cc(F)ccc1O` [Example 52, (R)-2-((5-fluoro-1H-indole-2-yl)(5-fluoro-2-hydroxyphenyl)methyl)-6-(4-(1,2,3,6-tetrahydropyridine-4-yl)phenyl)isoindolin-1-one] had a pIC50 of less than 5.00.

In turn, `O=C1c2cc(-c3ccc(N4CCNCC4)cc3)ccc2CN1[C@@H](c1cc2cccnc2[nH]1)c1cc(Cl)ccc1O` [Example 50, (R)-2-((5-chloro-2-hydroxyphenyl)(1H-pyrrolo[2,3-b]pyridine-2-yl)methyl)-6-(4-(piperazine-4-yl)phenyl)isoindolin-1-one] had a pIC50 of 6.38.

For the compound `CN1CCN(C2CCN(c3ccc(-c4ccc5c(c4)C(=O)N([C@@H](c4cc6ccccc6[nH]4)c4cc(F)ccc4O)C5)cc3)CC2)CC1` [Example 57, (R)-2-((5-fluoro-2-hydroxyphenyl)(1H-indole-2-yl)methyl)-6-(4-(4-(4-methylpiperazine-1-yl)piperidine-1-yl)phenyl)isoindolin-1-one], the pIC50 was 7.40.

`O=C1c2cc(-c3ccc(N4CCNCC4)cc3)ccc2CN1[C@@H](c1cc2cc(F)ccc2[nH]1)c1cc(F)ccc1O` [Example 51, (R)-2-((5-fluoro-1H-indole-2-yl)(5-fluoro-2-hydroxyphenyl)methyl)-6-(4-(piperazine-1-yl)phenyl)isoindolin-1-one] had a pIC50 of 6.19.

For `O=C1c2cc(C3=CCNCC3)ccc2CN1[C@@H](c1cc2ccccc2[nH]1)c1cc(F)ccc1O` [Example 35, (R)-2-((5-fluoro-2-hydroxyphenyl)(1H-indole-2-yl)methyl)-6-(1,2,3,6-tetrahydropyridine-4-yl)isoindolin-1-one], the pIC50 was 6.14.

Compound `O=C1c2ccccc2CN1C(c1nc2ccc(F)cc2[nH]1)c1ccccc1O` (centres unmarked) [Example 2, 2-((6-fluoro-1H-benzo[d]imidazole-2-yl)(2-hydroxyphenyl)methyl)isoindolin-1-one] had a pIC50 of 5.66.

`O=C1c2ccccc2CN1[C@H](c1cc2ccccc2[nH]1)c1cc(F)ccc1O` [Example 24, (S)-2-((5-fluoro-2-hydroxyphenyl)(1H-indole-2-yl)methyl)isoindolin-1-one]: the pIC50 was 5.48.

In turn, `Nc1ccc(-c2ccc3c(c2)C(=O)N([C@@H](c2cc4ccccc4[nH]2)c2cc(Cl)ccc2O)C3)cc1` [Example 30, (R)-6-(4-aminophenyl)-2-((5-chloro-2-hydroxyphenyl)(1H-indole-2-yl)methyl)isoindolin-1-one] showed a pIC50 of 6.92.

In turn, `O=C1c2ccccc2CN1C(c1nc2ccc(Cl)nc2[nH]1)c1ccccc1O` (centres unmarked) [Example 6, 2-((5-chloro-3H-imidazo[4,5-b]pyridine-2-yl)(2-hydroxyphenyl)methyl)isoindolin-1-one] had a pIC50 of less than 5.00.

For `N[C@@H]1CCN(c2ccc(-c3ccc4c(c3)C(=O)N([C@@H](c3cc5ccccc5[nH]3)c3cc(F)ccc3O)C4)cc2)C1` [Example 69, 6-(4-((R)-3-aminopyrrolidine-1-yl)phenyl)-2-((R)-(5-fluoro-2-hydroxyphenyl)(1H-indole-2-yl)methyl)isoindolin-1-one], the pIC50 was 7.25.

Consider `CN1CCN(c2ccc(-c3ccc4c(c3)C(=O)N([C@@H](c3cc5ccccc5[nH]3)c3cc(F)ccc3O)C4)cc2)CC1` [Example 43, (R)-2-((5-fluoro-2-hydroxyphenyl)(1H-indole-2-yl)methyl)-6-(4-(4-methylpiperazine-1-yl)phenyl)isoindolin-1-one], for which the pIC50 was 6.68.

`O=C1c2ccccc2CN1C(c1nc2ccccc2[nH]1)c1cc(Cl)ccc1O` (centres unmarked) [Example 8, 2-((1H-benzo[d]imidazole-2-yl)(5-chloro-2-hydroxyphenyl)methyl)isoindolin-1-one]: the pIC50 was 6.77.

`O=C1c2ccccc2CN1C(c1nc2cc(Cl)c(Cl)cc2[nH]1)c1ccccc1O` (centres unmarked) [Example 5, 2-((5,6-dichloro-1H-benzo[d]imidazole-2-yl)(2-hydroxyphenyl)methyl)isoindolin-1-one] had a pIC50 of 5.15.

For the compound `O=C1c2ccccc2CN1[C@@H](c1cc2ccccc2[nH]1)c1c(O)cccc1F` [Example 25, (R)-2-((2-fluoro-6-hydroxyphenyl)(1H-indole-2-yl)methyl)isoindolin-1-one], the pIC50 is less than 5.00.

Take `Nc1ccc(-c2ccc3c(c2)C(=O)N([C@@H](c2cc4ccccc4[nH]2)c2cc(F)ccc2O)C3)cc1` [Example 29, (R)-6-(4-aminophenyl)-2-((5-fluoro-2-hydroxyphenyl)(1H-indole-2-yl)methyl)isoindolin-1-one]: the pIC50 is 6.55.

For orientation: pIC50 means the IC50 on a negative log10 scale, so that one unit is a factor of ten. A lower pIC50 goes with a large IC50.
